Ends that are not written are not given here. * marks the point of attachment. Myristoyl = CCCCCCCCCCCCCC(=O)*
Experiments:
sebum production = conditions: background statement; cited from earlier work
sebaceous glands = assay: Sebum production and maturation of sebaceous glands in newborn BalbC mice topically treated with visfatin antagonist siRNAs (Oil Red O, H&E, gland counts); assay type: in vivo, Mus musculus; conditions: siRNA free second control solution (PBS, 0.1% DMSO, 1 μg/ml MPDY), day 5 after birth
Description: Hematoxylin & Eosin Staining: Paraffin embedded skin biopsy section slides were incubated at 60° C. for 60 minutes and deparaffinized by washing the slides twice with toluene (100%) for 10 minutes and rehydrating the skin biopsy section slides in decreasing concentration of ethanol (100-50%) for 5 minutes each. The slides then were stained with a ready to use solution of hematoxylin for 5 minutes, rinsed with water, stained with eosin (0.5% in double distilled water) for 1.5 minutes and washed twice by rapid immersion in 70% ethanol. Thereafter, the slides were dehydrated by washing once with 95% ethanol for 5 minutes, twice with 100% ethanol for 5 minutes and twice with xylene (100%) for 10 minutes. This was followed by the application of ENTELLAN™ (Merck KGaA, Darmstadt, Germany) and the mounting of coverslips.
Oil Red O Staining: Frozen skin biopsy section slides were fixed in 1% neutral-buffered formalin for 5 minutes, washed in deionized water, and incubated in 60% isopropanol for 5 minutes. Skin biopsy section slides were stained with a fresh, filtered Oil Red O working solution which had been prepared immediately beforehand by making a 2:3 mixture of stock (0.5% Oil Red O in 99% isopropanol) and deionized water. […]

For `CC1=C(/C=C/C(C)=C/C=C/C(C)=C\C(=O)O)C(C)(C)CCC1` [Isotretinoin], the “decrease of sebum production” value (sebum production) is given as “up to 90%”.

In the case of “MPDY: cationic, lipophilic, N-myristoylated peptide having the amino acid sequence FARKGALRQ (SEQ ID NO: 27) (Myristoyl-FARKGALRQ)”, the “effect of peptide alone on sebum production and skin” value (sebaceous glands) is reported as “did not inhibit sebum production or otherwise discernibly alter the skin”.

Reference: patent US9393284B2, “Visfatin therapeutic agents for the treatment of acne and other conditions” (ARAVA BIO-TECH LTD., priority 2009, dated 2016)
